According to US10456405B2, “Nitric oxide-releasing prodrug molecule of substituted quinazolines” (ZHEJIANG HUAHAI PHARMACEUTICAL CO., LTD, priority 2015, dated 2019):
Where two headings read alike, the source gives them in different places.

Key:
ApoA-I mRNA = assay: Regulation of ApoA-I mRNA in HepG2 cells (real-time PCR); type: cell-based; parameters: key: Active: When 100 μM of the tested compound allowed ApoA-I mRNA in HepG2 cells to increase more than 15%, then the test compound was known as an ApoA active compound; details: 100 μM, 48 h, relative to DMSO control
Method: Experiment 5. Regulation of the Tested Compounds on ApoA-I mRNA HepG2 cells were cultured for 24 h in a 24-well plate with 400 μl of MEM medium containing 0.5% (v/v) of fetal bovine serum. Then each of the tested compounds (100 μM) and the positive control RVX-208 (100 μM) were added. The cells were cultured for another 48 h. The medium was aspirated out. After washing with 200 μl of PBS, 85 μl of cell lysis solution was added into the cells in each well. The cells were incubated at room temperature for 5 to 10 min to be completely dissolved and detached. The mRNA was extracted from the cells with a kit. The extracted mRNA were used for a real-time fluorescence quantitative PCR detection with RNA Fluorescence (RiboGreen) Quantitation Assay Kit and ApoA-I mRNA Primer-Probe Mixture from the company of Applied Biosystems.
After obtaining the Ct values, the induction fold of each test compound relative to DMSO control was calculated. The induction fold was used to reflect the ability of regulating ApoA-I mRNA for the tested compounds. When 100 μM of the tested compound allowed ApoA-I mRNA in HepG2 cells to increase more than 15%, then the test compound was known as an ApoA active compound.

apoE−/− mice = assay: apoE−/− mouse atherosclerosis model, high-fat diet 10 weeks; type: in vivo; details: for Aorta eNOS / ApoA1 / Heart eNOS / Serum NO / Serum eNOS: blank administration group = 100, 150 mg/kg twice a day, 10 weeks; for HDL-C / LDL-C / TC: serum, high-fat diet 10 weeks, intragastric 150 mg/kg twice a day
Source text: Experimental method: 36 eight-week-old male apoE-/- mice were selected and randomly divided into a blank administration group, an […] administration group, an […] administration group, an […] administration group, an […] administration group, and an […] administration group, 6 mice per group. The mice in each group were fed with high-fat diet for 10 weeks. At the beginning of the high-fat feeding, the mice in each group were administrated. Each tested compound was intragastric administered at the dose of 150 mg/kg twice a day. The blank administration group was given corresponding dose of saline. […] After the blood was taken, the serum, heart, and aorta were isolated. The levels of total cholesterol (TC), high density lipoprotein cholesterol (HDL-C), and low density lipoprotein cholesterol (LDL-C) in the serum of the mice in each group were measured by automatic biochemical analyzer. The ApoA1 expression level was detected with an ApoA1 kit. The content of NO in the serum of the mice was determined with a total NO test kit (Beyotime). The NOS activities of the heart, aorta, and serum were determined with an NOS test kit (Beyotime). The content of eNOS was calculated by the difference between the measured values determined before and after adding eNOS inhibitor L-NAME (Beyotime).

[1] = rat, in vivo
Method: Experimental method: Intravenous injection solutions (the administration concentrations of the tested compounds were 1 mg/kg) and oral gastric perfusates (the administration concentrations of the test compounds were 5 mg/kg) of the test compounds were prepared, and intravenously and orally administered to three SD rats, respectively. The concentrations of the whole blood for H130 at 0.083 h, 0.25 h, 0.5 h, 1 h, 2 h, 4 h, 8 h, and 24 h after administration were determined by LC-MS/MS, respectively. The pharmacokinetic parameters were compared by a drug-time curve. Sample pretreatment: 150 μL of the whole blood to be tested was aspirated accurately. 600 μL of internal standard solution (diluted to 0.5 μg/mL with methanol) was added, sufficiently mixed by a vortex mixer, and centrifuged at 13000 r/min for 20 min at 4° C. 3 μL of the supernatant was taken into a sample vial.
Chromatographic conditions: C18 reversed-phase chromatographic column; gradient elution with mobile phase A: water/acetonitrile (v:v=95:5) with 0.025% of formic acid and 1 mM of ammonium acetate added thereto, and mobile phase B: acetonitrile/water (v:v=95:5) with 0.025% of formic acid and 1 mM of ammonium acetate added thereto.

[2] = Plasma stability in vitro, human plasma; details: for Content of Tested Substance (n = 2): human plasma, 2 μM, 37° C., in % (unit assumed)
Method: (§1) Experimental method: The tested compounds (2 μM) were added into mouse or human plasma, and incubated at 37° C. Samples were taken at 0, 10, 30, 60 and 120 min respectively. The reaction was stopped by adding a stop agent. The mixture was sufficient shaken, and centrifuged at 4000 rpm for 10 min at 4° C. The supernatant was taken. The concentrations of the tested compounds and their metabolite (H130) in the supernatant were measured by LC-MS/MS.

[3] = Plasma stability in vitro, mouse plasma; details: for Content of Tested Substance (n = 2): CD-1 mice plasma, 2 μM, 37° C., in % (unit assumed)
Method: as §1

| Molecule | Upregulation of Apoa-I Mrna Level (ApoA-I mRNA) | Aorta eNOS (apoE−/− mice) [%] | ApoA1 (apoE−/− mice) [%] | Heart eNOS (apoE−/− mice) [%] | Serum NO (apoE−/− mice) [%] | Serum eNOS (apoE−/− mice) [%] | HDL-C (apoE−/− mice) [mg/dL] | LDL-C (apoE−/− mice) [mg/dL] | TC (apoE−/− mice) [mg/dL] | release of prototype compound H130 after administration [1] | AUCRatio (Dosage Calibration) ([1]; iv, 1 mg/kg) [%] | AUCRatio (Dosage Calibration) ([1]; po, 5 mg/kg) [%] | also measured |
| --- | --- | --- | --- | --- | --- | --- | --- | --- | --- | --- | --- | --- | --- |
| 2-[4-(5,7-dimethoxy-4-oxo-3,4-dihydro-quinazolin-2-yl)-2,6-dimethyl-phenoxy]-ethyl 4-(2-oxo-3-nitroxymethyl-1,2,5-oxadiazol-3-methyl)oxy-4-oxo-butyrate [Compound H111] | Active | 127 | 118 | 145 | 134 | 132 | 83 ± 13 | 296 ± 29 | 1021 ± 57 | can be rapidly released | 54.9 | 41.8 | – |
| COc1cc(OC)c2c(=O)[nH]c(-c3cc(C)c(OCCO[N+](=O)[O-])c(C)c3)nc2c1 [Compound H101, 2-(4-(2-nitrooxy-ethoxy)-3,5-dimethylphenyl)-5,7-dimethoxyquinazolin-4(3H)-one] | Active | 132 | 126 | 135 | 126 | 128 | 78 ± 9 | 273 ± 38 | 985 ± 68 | can be rapidly released | – | – | Content of Tested Substance (n = 2) ([2]; 0 min): 100.0; Content of Tested Substance (n = 2) ([2]; 10 min): 99.5; Content of Tested Substance (n = 2) ([2]; 30 min): 96.4; Content of Tested Substance (n = 2) ([2]; 60 min): 97.5; Content of Tested Substance (n = 2) ([2]; 120 min): 95.8; stability in human plasma ([2]; within 2 h): good stability; Content of Tested Substance (n = 2) ([3]; 0 min): 100.0; Content of Tested Substance (n = 2) ([3]; 10 min): 101.4; Content of Tested Substance (n = 2) ([3]; 30 min): 94.8; Content of Tested Substance (n = 2) ([3]; 60 min): 99.7; Content of Tested Substance (n = 2) ([3]; 120 min): 99.1; stability in mouse plasma ([3]; within 2 h): good stability; AUCRatio (Dosage Calibration) ([1]; SD, iv, 1 mg/kg): 37.7%; AUCRatio (Dosage Calibration) ([1]; SD, po, 5 mg/kg): 42.4% |
| COc1cc(OC)c2c(=O)[nH]c(-c3cc(C)c(OCCOC(=O)OC4COC5C(O[N+](=O)[O-])COC45)c(C)c3)nc2c1 (stereo not drawn) [Compound H119, 2-[4-(5,7-dimethoxy-4-oxo-3,4-dihydro-quinazolin-2-yl)-2,6-dimethyl-phenoxy]-ethyl (6-nitroxy-hexahydrofuro[3,2-b]furan-3-yl)-carbonate] | Active | 124 | 114 | 138 | 127 | 126 | 88 ± 14 | 308 ± 35 | 994 ± 85 | can be rapidly released | 55.6 | 0.84 | – |
